Usually inhibition in vivo stands for the share of the control response that was lost under treatment. Higher therefore signals a strong effect.

Experimental findings from patent US8759522B2, “Inhibitors of protein tyrosine kinase activity” (Methylgene Inc., priority 2008, dated 2014) are described below.

The test concerns CNV progression. Description: In vivo choroidal neovascularization (CNV) model. Set-up: species or system Brown-Norway rats. The conditions noted are these: 240 h; rat laser-induced CNV, 30 nmol/eye injection on Day 3, CNV area on Day 10 vs vehicle-treated group. The source says: In vivo Choroidal Neovascularization (CNV) Model
This test measures the capacity of compounds to inhibit CNV progression. CNV is the main cause of severe vision loss in patients suffering from age-related macular degeneration (AMD).
Male Brown-Norway rats (Japan Clea Co., Ltd.) were used in these studies.
Rats were anesthetized by intraperitoneal injection of pentobarbital, and the right pupil was dilated with 0.5% tropicamide and 0.5% phenylephrine hydrochloride. The right eye received 6 laser burns between retinal vessels using a slit lamp delivery system of Green laser Photocoagulator (Nidex Inc., Japan), and microscope slide glass with Healon™ (AMO Inc) used as a contact lens. The laser power was 100 or 200 mW for 0.1 second and spot diameter was 100 μm. At the time of laser burn, bubble production was observed, which is an indication of rupture of Bruch's membrane which is important for CNV generation.
Rats were divided into the groups based on their body weight using SAS software (SAS institute Japan, R8.1) after laser irradiation (Day 0). After animals were anesthetized, and the right pupil dilated (as above mentioned), the right eye of the animal received the compound or vehicle by an injection (10 μL/eye) at doses of 30 nmol/eye on Day 3. The compounds were dissolved or suspended in CBS, PBS, or other adequate vehicles before injection.
On Day 10, the animals were anesthetized with ether, and high molecular weight fluorescein isothiocyanate (FITC)-dextran (SIGMA, 2×10^6 MW) was injected via a tail vein (20 mg/rat). About 30 min after FITC-dextran injection, animals were euthanized by ether or carbon dioxide, and the eyes were removed and fixed with 10% formaline neutral buffer solution. After over 1 hour of fixation, RPE-choroid-sclera flat mounts were obtained by removing cornea, lens and retina from the eyeballs. The flat mounts were mounted in 50% glycerol on a microscope slide, and the portion burned by laser was photographed using a fluorescence microscope (Nikon Corporation, excitation filter: 465-495 nm, absorption filter: 515-555 nm). The CNV area was obtained by measurement of hyper-fluorescence area observed on the photograph using Scion image.
The average CNV area of 6 burns was used as an individual value of CNV area, and the average CNV area of compound treated group was compared with that of the vehicle-treated group.

The structures appear in SMILES notation.

`COCCOCCNCc1ccc(-c2cc3nccc(Oc4ccc(NC(=O)Nc5cc(C)on5)cc4F)c3s2)nc1` [Compound 392, 1-(3-fluoro-4-(2-(5-((2-(2-methoxyethoxy)ethylamino)methyl)pyridin-2-yl)thieno[3,2-b]pyridin-7-yloxy)phenyl)-3-(5-methylisoxazol-3-yl)urea] had an inhibition in vivo at 30 nmol/eye of 40 to 60%. The figure for `COCCNCc1ccc(-c2cc3nccc(Oc4ccc(NC(=O)Nc5nc(C)cs5)cc4F)c3s2)nc1` [Compound 397, 1-(3-fluoro-4-(2-(5-((2-methoxyethylamino)methyl)pyridin-2-yl)thieno[3,2-b]pyridin-7-yloxy)phenyl)-3-(4-methylthiazol-2-yl)urea] is 40 to 60%.

On to `COCCNCc1ccc(-c2cc3nccc(Oc4ccc(NC(=O)Nc5cccc(S(N)(=O)=O)c5)cc4F)c3s2)nc1` [Compound 403, 3-(3-(3-fluoro-4-(2-(5-((2-methoxyethylamino)methyl)pyridin-2-yl)thieno[3,2-b]pyridin-7-yloxy)phenyl)ureido)benzenesulfonamide], for which the inhibition in vivo at 30 nmol/eye is at least 60%. The figure for `COCCN(Cc1ccc(-c2cc3nccc(Oc4ccc(NC(=O)Nc5cccc(S(C)(=O)=O)c5)cc4F)c3s2)nc1)C(C)=O` [Compound 413, N-((6-(7-(2-fluoro-4-(3-(3-(methylsulfonyl)phenyl)ureido)phenoxy)thieno[3,2-b]pyridin-2-yl)pyridin-3-yl)methyl)-N-(2-methoxyethyl)acetamide] is at least 60%; for `COCCNCc1ccc(-c2cc3nccc(Oc4ccc(NC(=O)NC5CCC5)cc4F)c3s2)nc1` [Compound 414, 1-cyclobutyl-3-(3-fluoro-4-(2-(5-((2-methoxyethylamino)methyl)pyridin-2-yl)thieno[3,2-b]pyridin-7-yloxy)phenyl)urea] it is 40 to 60%; for `COCCN(Cc1ccc(-c2cc3nccc(Oc4ccc(NC(=O)Nc5cccc(C(N)=O)c5)cc4F)c3s2)nc1)C(=O)OC` [Compound 419, methyl (6-(7-(4-(3-(3-carbamoylphenyl)ureido)-2-fluorophenoxy)thieno[3,2-b]pyridin-2-yl)pyridin-3-yl)methyl(2-methoxyethyl)carbamate] it is 40 to 60%.
